Test results reported in US8536332B2, “Modulating signal transduction pathways with substituted pyridol [2,3-b] pyrazines” (Aeterna Zentaris GmbH, priority 2007, dated 2013).

melting point [°C] | SMILES
> 330 | CCNC(=O)Nc1ccc2ncc(-c3ccc(NC(=O)OCCOCCOCCOC)c(OC)c3)nc2n1 [Compound 44, {4-[6-(3-Ethyl-ureido)-pyrido[2,3-b]pyrazin-3-yl]-2-methoxy-phenyl}-carbamic acid 2-[2-(2-methoxy-ethoxy)-ethoxy]-ethyl ester]
263 to 265 | COc1cc(-c2ccc3ncc(NC(=O)Nc4ccc(-n5cccc5)cc4)nc3n2)ccc1O [Compound 623, 1-[6-(4-Hydroxy-3-methoxy-phenyl)-pyrido[2,3-b]pyrazin-3-yl]-3-(4-pyrrol-1-yl-phenyl)-urea]
> 250 | CCNC(=O)Nc1cnc2ccc(-c3ccc(C(C)=O)s3)nc2n1 [Compound 183, 1-[6-(5-Acetyl-thiophen-2-yl)-pyrido[2,3-b]pyrazin-3-yl]-3-ethyl-urea]
> 300 | O=C(Nc1ccc(N2C(=O)C=CC2=O)cc1)Nc1cnc2ccc(-c3cc(Cl)c(O)c(Cl)c3)nc2n1 [Compound 565, 1-[6-(3,5-Dichloro-4-hydroxy-phenyl)-pyrido[2,3-b]pyrazin-3-yl]-3-[4-(2,5-dioxo-2,5-dihydro-pyrrol-1-yl)-phenyl]-urea]
269 to 273 | CCNC(=O)Nc1ccc2ncc(-c3ccc(N(c4ccccc4)c4ccccc4)cc3)nc2n1 [Compound 128, 1-[3-(4-Diphenylamino-phenyl)-pyrido[2,3-b]pyrazin-6-yl]-3-ethyl-urea]
251 to 255 | CCNC(=O)Nc1ccc2ncc(-c3cccc(-c4ccccc4)c3)nc2n1 [Compound 116, 1-(3-Biphenyl-3-yl-pyrido[2,3-b]pyrazin-6-yl)-3-ethyl-urea]
245 to 247 | CCNC(=O)Nc1ccc2ncc(-c3ccc4c(c3)N(C)CCO4)nc2n1 [Compound 35, 1-Ethyl-3-[3-(4-methyl-3,4-dihydro-2H-benzo[1,4]oxazin-6-yl)-pyrido[2,3-b]pyrazin-6-yl]-urea]
236 to 238 | C=CCNC(=O)Nc1cnc2ccc(-c3ccc(OC)c(OC)c3)nc2n1 [Compound 575, 1-Allyl-3-[6-(3,4-dimethoxy-phenyl)-pyrido[2,3-b]pyrazin-3-yl]-urea]
> 230 | CCNC(=O)Nc1cnc2ccc(-c3cc(OC)c(OC)c(OC)c3)nc2n1 [Compound 23, 1-Ethyl-3-[6-(3,4,5-trimethoxy-phenyl)-pyrido[2,3-b]pyrazin-3-yl]-urea]
181 to 183 | CCNC(=O)Nc1ccc2ncc(-c3ccccc3OCc3ccccc3)nc2n1 [Compound 57, 1-[3-(2-Benzyloxy-phenyl)-pyrido[2,3-b]pyrazin-6-yl]-3-ethyl-urea]
222 | CCNC(=S)Nc1ccc2ncc(N(C)c3cc(OC)c(OC)c(OC)c3)nc2n1 [Compound 706, 1-Ethyl-3-{3-[methyl-(3,4,5-trimethoxy-phenyl)-amino]-pyrido[2,3-b]pyrazin-6-yl}-thiourea]
281 | CCNC(=O)Nc1ccc2ncc(Nc3ccc(OC)c(O)c3)nc2n1 [Compound 156, 1-Ethyl-3-[3-(3-hydroxy-4-methoxy-phenylamino)-pyrido[2,3-b]pyrazin-6-yl]-urea]
200 to 202 | CCNC(=O)Nc1ccc2ncc(-c3cccc(Br)c3OC(C)C)nc2n1 [Compound 67, 1-[3-(3-Bromo-2-isopropoxy-phenyl)-pyrido[2,3-b]pyrazin-6-yl]-3-ethyl-urea]
> 320 | CCNC(=O)Nc1cnc2ccc(-c3ccc(C)c(N)c3)nc2n1 [Compound 180, 1-[6-(3-Amino-4-methyl-phenyl)-pyrido[2,3-b]pyrazin-3-yl]-3-ethyl-urea]
277 to 280 | CCNC(=O)Nc1ccc2ncc(Nc3ccc(O)c(C)c3)nc2n1 [Compound 86, 1-Ethyl-3-[3-(4-hydroxy-3-methyl-phenylamino)-pyrido[2,3-b]pyrazin-6-yl]-urea]
261 to 264 | COc1ccc(-c2ccc3ncc(NC(=O)NC4CCCC4)nc3n2)cc1OC [Compound 576, 1-Cyclopentyl-3-[6-(3,4-dimethoxy-phenyl)-pyrido[2,3-b]pyrazin-3-yl]-urea]
110 | CCNc1ccc2ncc(Nc3cc(OC)c(OC)c(OC)c3)nc2n1 [Compound 733, N*6*-Ethyl-N*3*- (3,4,5-trimethoxy-phenyl)-pyrido[2,3-b]pyrazine-3,6-diamine]
263.9 to 265.6 | CCNC(=O)Nc1ccc2ncc(-c3ccc(-c4ccccc4)cc3F)nc2n1 [Compound 84, 1-Ethyl-3-[3-(3-fluoro-biphenyl-4-yl)-pyrido[2,3-b]pyrazin-6-yl]-urea]
219 to 222 | COc1cc(-c2ccc3ncc(NC(=O)NC(C)(C)C)nc3n2)ccc1O [Compound 28, 1-tert-Butyl-3-[6-(4-hydroxy-3-methoxy-phenyl)-pyrido[2,3-b]pyrazin-3-yl]-urea]
260 | CCNC(=O)Nc1ccc2ncc(-c3ccc(C(=O)OC)cc3)nc2n1 [Compound 132, 4-[6-(3-Ethyl-ureido)-pyrido[2,3-b]pyrazin-3-yl]-benzoic acid methyl ester]
196 | COc1cc(Nc2cnc3ccc(NC(=S)NCCN4CCOCC4)nc3n2)cc(OC)c1OC [Compound 703, 1-(2-Morpholin-4-yl-ethyl)-3-[3-(3,4,5-trimethoxy-phenylamino)-pyrido[2,3-b]pyrazin-6-yl]-thiourea]

melting point [°C] | SMILES
197 to 200 | COc1cc(Nc2cnc3ccc(NC(=S)NCCc4ccccc4)nc3n2)cc(OC)c1OC [Compound 699, 1-Phenethyl-3-[3-(3,4,5-trimethoxy-phenylamino)-pyrido[2,3-b]pyrazin-6-yl]-thiourea]
185 | CCNC(=S)Nc1cnc2ccc(Nc3ccc(Cl)cc3)nc2n1 [Compound 217, 1-[6-(4-Chloro-phenylamino)-pyrido[2,3-b]pyrazin-3-yl]-3-ethyl-thiourea]
230 to 231 | CCNC(=S)Nc1cnc2ccc(-c3ccc(C)cc3)nc2n1 [Compound 651, 1-Ethyl-3-(6-p-tolyl-pyrido[2,3-b]pyrazin-3-yl)-thiourea]
182 to 184 | CCNC(=O)Nc1ccc2ncc(-c3ccc(OP(=O)(OCC)OCC)c(OC)c3)nc2n1
272 to 275 | O=C(Nc1cnc2ccc(-c3cc(Cl)c(O)c(Cl)c3)nc2n1)NC1CCCCC1 [Compound 558, 1-Cyclohexyl-3-[6-(3,5-dichloro-4-hydroxy-phenyl)-pyrido[2,3-b]pyrazin-3-yl]-urea]
246 to 248 | CCCNC(=O)Nc1cnc2ccc(-c3ccc(OC)c(OC)c3)nc2n1 [Compound 570, 1-[6-(3,4-Dimethoxy-phenyl)-pyrido[2,3-b]pyrazin-3-yl]-3-propyl-urea]
259 to 262 | CCNC(=O)Nc1ccc2ncc(-c3ccc(F)c(F)c3)nc2n1 [Compound 95, 1-[3-(3,4-Difluoro-phenyl)-pyrido[2,3-b]pyrazin-6-yl]-3-ethyl-urea]
243 to 245 | CCNC(=O)Nc1cnc2ccc(N3CCOCC3)nc2n1 [Compound 225, 1-Ethyl-3-(6-morpholin-4-yl-pyrido[2,3-b]pyrazin-3-yl)-urea]
228 | CCNC(=O)Nc1ccc2ncc(Nc3ccc(N(C)C)cc3)nc2n1 [Compound 169, 1-[3-(4-Dimethylamino-phenylamino)-pyrido[2,3-b]pyrazin-6-yl]-3-ethyl-urea]
> 320 | CCNC(=O)Nc1cnc2ccc(-c3cccc(N)c3)nc2n1 [Compound 179, 1-[6-(3-Amino-phenyl)-pyrido[2,3-b]pyrazin-3-yl]-3-ethyl-urea]
236 | CCNC(=S)Nc1cnc2ccc(Nc3ccc(C)c(NS(C)(=O)=O)c3)nc2n1 [Compound 207, N-{5-[3-(3-Ethyl-thioureido)-pyrido[2,3-b]pyrazin-6-ylamino]-2-methyl-phenyl}-methanesulfonamide]
263 | CCNC(=O)Nc1cnc2ccc(-c3cc(C(C)(C)C)c(O)c(C(C)(C)C)c3)nc2n1 [Compound 596, 1-[6-(3,5-Di-tert-butyl-4-hydroxy-phenyl)-pyrido[2,3-b]pyrazin-3-yl]-3-ethyl-urea]
243 | CCCNC(=S)Nc1ccc2ncc(Nc3cc(OC)c(OC)c(OC)c3)nc2n1 [Compound 501, 1-Propyl-3-[3-(3,4,5-trimethoxy-phenylamino)-pyrido[2,3-b]pyrazin-6-yl]-thiourea]
249 to 251 | CCNC(=O)Nc1cnc2ccc(N3CCC(O)CC3)nc2n1 [Compound 235, 1-Ethyl-3-[6-(4-hydroxy-piperidin-1-yl)-pyrido[2,3-b]pyrazin-3-yl]-urea]
253 | CCNC(=O)Nc1ccc2ncc(-c3ccc(NC(=O)CCC(=O)OC)cc3)nc2n1 [Compound 76, N-{4-[6-(3-Ethyl-ureido)-pyrido[2,3-b]pyrazin-3-yl]-phenyl}-succinamic acid methyl ester]
208 to 210 | COc1cc(-c2ccc3ncc(NC(=O)NCCCCc4ccccc4)nc3n2)ccc1O [Compound 630, 1-[6-(4-Hydroxy-3-methoxy-phenyl)-pyrido[2,3-b]pyrazin-3-yl]-3-(4-phenyl-butyl)-urea]
253 to 255 | O=C(Nc1cnc2ccc(-c3cc(Cl)c(O)c(Cl)c3)nc2n1)Nc1cccs1 [Compound 560, 1-[6-(3,5-Dichloro-4-hydroxy-phenyl)-pyrido[2,3-b]pyrazin-3-yl]-3-thiophen-2-yl-urea]
240 to 243 | CCNC(=O)Nc1ccc2ncc(-c3ccccc3C(F)(F)F)nc2n1 [Compound 97, 1-Ethyl-3-[3-(2-trifluoromethyl-phenyl)-pyrido[2,3-b]pyrazin-6-yl]-urea]
166 | CCNC(=S)Nc1cnc2ccc(Nc3ccc(O)c(OC)c3)nc2n1 [Compound 203, 1-Ethyl-3-[6-(4-hydroxy-3-methoxy-phenylamino)-pyrido[2,3-b]pyrazin-3-yl]-thiourea]
255 | CCNC(=O)Nc1cnc2ccc(Nc3ccc(C)c(OC)c3)nc2n1 [Compound 209, 1-Ethyl-3-[6-(3-methoxy-4-methyl-phenylamino)-pyrido[2,3-b]pyrazin-3-yl]-urea]
220 to 222 | COc1cc(-c2ccc3ncc(NC(=O)Nc4ccccc4[N+](=O)[O-])nc3n2)ccc1O [Compound 617, 1-[6-(4-Hydroxy-3-methoxy-phenyl)-pyrido[2,3-b]pyrazin-3-yl]-3-(2-nitro-phenyl)-urea]
